{"source": "paper PMC6222451", "about": "“Novel Potent Hypoglycemic Compounds from Euonymus laxiflorus Champ. and Their Effect on Reducing Plasma Glucose in an ICR Mouse Model” (Molecules : A Journal of Synthetic Chemistry and Natural …, 2018)", "key": {"[1]": {"target": "T1, Saccharomyces cerevisiae (yeast) α-glucosidase (Saccharomyces cerevisiae, UniProt P53341)", "T1 construct": "purchased Sigma Chemical Co., St. Louis City, MO, USA", "T1 sequence (P53341 whole entry)": "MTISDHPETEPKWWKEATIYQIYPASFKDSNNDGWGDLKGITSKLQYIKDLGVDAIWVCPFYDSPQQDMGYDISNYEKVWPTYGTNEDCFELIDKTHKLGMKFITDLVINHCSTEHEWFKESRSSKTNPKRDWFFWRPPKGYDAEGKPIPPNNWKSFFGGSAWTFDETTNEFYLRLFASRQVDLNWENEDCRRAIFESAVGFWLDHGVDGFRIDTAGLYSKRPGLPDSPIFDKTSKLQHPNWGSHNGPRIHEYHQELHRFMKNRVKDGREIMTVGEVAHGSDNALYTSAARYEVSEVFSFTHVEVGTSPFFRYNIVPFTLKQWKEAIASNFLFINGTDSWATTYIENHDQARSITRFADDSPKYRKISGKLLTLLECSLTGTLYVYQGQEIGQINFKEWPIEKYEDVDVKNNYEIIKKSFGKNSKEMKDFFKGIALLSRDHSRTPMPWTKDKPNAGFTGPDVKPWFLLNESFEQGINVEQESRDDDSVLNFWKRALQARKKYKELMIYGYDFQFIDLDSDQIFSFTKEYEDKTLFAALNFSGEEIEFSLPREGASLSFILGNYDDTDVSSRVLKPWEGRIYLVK", "test": "α-Glucosidase inhibitory activity determination (pNPG substrate)", "format": "biochemical", "conditions": "for inhibition at 7.81 µg/mL: read-out: Maximum Inhibition (%), recorded at 7.81 μg/mL", "procedure": "The α-glucosidase inhibitory activity was closely detected following the method described in detail by Nguyen et al. (2018). The mixture of 50 μL α-glucosidase, 50 μL sample solutions, 100 μL buffer was pre-incubated at 37 °C for 20 min; the reaction then started when 50 μL of p-nitrophenyl glucopyranoside (10 mmol/L) was added to the mixture. After incubation at the same temperature for 30 min, the reaction was stopped by adding 100 μL Na2CO3 solution (1 mol/L) to the reaction mixture; the absorbance of this final mixture was then measured at 410 nm (A). The control group also underwent the same described method with the use of 50 μL buffer instead of 50 μL sample solutions; the absorbance was recorded at 410 nm (B). The aGI activity (%) was calculated using the following equation: aGI (%) = (A − B)/ A × 100.\nThe inhibition was also expressed as IC50 value determined as per the previous study. The enzyme and the samples were prepared in 0.1 mol/L potassium phosphate buffer (pH 7). […]"}, "ICR mice": {"test_system": "ICR mice", "test": "Starch tolerance test: effect on reducing plasma glucose in ICR mice", "format": "in vivo, mouse", "conditions": "oral", "description": "Animals: seven week-old male ICR (Institute of Cancer Research) mice were purchased from The National Laboratory Animal Center (No. 128, Sec. 2, Academia Rd., Nangang Dist., Taipei City 11529, Taiwan) and tested in accordance with the approval and guidelines of the Institutional Animal Care and Use Committee of the National Research Institute of Chinese Medicine, Ministry of Health and Welfare (IACUC No. 104-706-1, 29 December 2014). […] Distilled water was used to prepare the condensed tannins and acarbose solutions.\nAssay: The effect of condensed tannin-ELCTB-3.1.1 on the reduction of plasma glucose in mice was performed according to the experimental animal protocol described by Nguyen et al. (2017) with the use of starch solution (3 g/kg bw) instead of sucrose solution administered to ICR mice."}, "[2]": {"conditions": "read-out: Maximum Inhibition (%), recorded at 250 μg/mL"}, "[3]": {"conditions": "read-out: α-glucosidase inhibition, aGI (%), primary test of 26 isolated compounds at 250 µg/mL (Figure 2)"}, "[4]": {"conditions": "IC50, isolated compounds (Table 3)"}, "[5]": {"conditions": "isolated compounds (Table 3), read-out: IC50 (converted)"}}, "note": "Where two headings read alike, the source gives them in different places.", "data": [{"smiles": "C[C@H]1O[C@H](O[C@H]2[C@H](O)[C@@H](O)[C@@H](O[C@H]3[C@H](O)[C@@H](O)C(O)O[C@@H]3CO)O[C@@H]2CO)[C@H](O)[C@@H](O)[C@@H]1N[C@H]1C=C(CO)[C@@H](O)[C@H](O)[C@H]1O", "note": "(stereo partly shown) [Acarbose, reference compound]", "values": [{"measurement": "inhibition at 2500 µg/mL", "setting": "[1]; read-out: Maximum Inhibition (%), acarbose, recorded at 2500 μg/mL (Table 3)", "result": "65 ± 2.7", "unit": "%"}, {"measurement": "inhibition at 2500 µg/mL", "setting": "[1]; read-out: α-Glucosidase Inhibitory Activity Inhibition (%), yeast α-glucosidase, acarbose tested at 2500 μg/mL (Table 2)", "result": "64 ± 2.4", "unit": "%"}, {"measurement": "mice with symptoms of diarrhea", "setting": "ICR mice; acarbose 25 mg/kg bw", "result": 20, "unit": "%"}, {"measurement": "mice with symptoms of diarrhea", "setting": "ICR mice; acarbose 50 mg/kg bw", "result": 50, "unit": "%"}]}, {"smiles": "CC1=CC(=O)OCC1O[C@@H]1O[C@H](CO)[C@@H](O)[C@H](O)[C@H]1O", "note": "(stereo partly drawn) [Compound 1, Walterolactone A/B β-D-pyranoglucoside]", "values": [{"measurement": "IC50", "setting": "[1]", "result": 3.12, "unit": "µM"}, {"measurement": "inhibition at 7.81 µg/mL", "setting": "[1]", "result": "100 ± 5.8", "unit": "%"}]}, {"smiles": "COc1cc(O[C@@H]2O[C@H](CO)[C@@H](O)[C@H](O)[C@H]2O)cc(OC)c1O", "note": "[Compound 9, 1-β-D-glucopyranosyloxy-3,5-dimethoxy-4-hydroxybenzene]", "values": [{"measurement": "inhibition at 250 µg/mL", "setting": "[1]; [2]", "result": "≤ 38", "unit": "%"}, {"measurement": "inhibition at 250 µg/mL", "setting": "[1]; [3]", "result": "38 to 60", "unit": "%"}]}, {"smiles": "Oc1cc(O)c2c(c1)O[C@@H](c1cc(O)c(O)c(O)c1)[C@H](O)C2", "note": "[Compound 10, (−)-Gallocatechin]", "values": [{"measurement": "IC50", "setting": "[1]; [4]", "result": 38.9, "unit": "µM"}, {"measurement": "inhibition at 250 µg/mL", "setting": "[1]; [2]", "result": "93 ± 2.9", "unit": "%"}]}, {"smiles": "O=C(c1ccc(O)cc1)C(O)CO[C@@H]1O[C@H](CO)[C@@H](O)[C@H](O)[C@H]1O", "note": "(stereo partly drawn) [Compound 11, Schweinfurthinol 9-O-β-D-pyranoglucoside]", "values": [{"measurement": "IC50", "setting": "[1]", "result": 91.8, "unit": "µM"}, {"measurement": "inhibition at 250 µg/mL", "setting": "[1]; [2]", "result": "87 ± 4", "unit": "%"}, {"measurement": "inhibition at 250 µg/mL", "setting": "[1]; [3]", "result": "90 to 100", "unit": "%"}]}, {"smiles": "CC(C)=CC(=O)O[C@@H]1[C@H](O)[C@H](O)[C@@H](O)[C@H](O)[C@H]1O", "note": "[Compound 12, 1-O-(3-methyl)-butenoyl-myo-inositol]", "values": [{"measurement": "IC50", "setting": "[1]; [5]", "result": 103, "unit": "µM"}, {"measurement": "inhibition at 250 µg/mL", "setting": "[1]; [2]", "result": "96 ± 6.9", "unit": "%"}]}, {"smiles": "COc1cc(O)cc(OC)c1O[C@@H]1O[C@H](CO)[C@@H](O)[C@H](O)[C@H]1O", "note": "[Compound 14, Leonuriside]", "values": [{"measurement": "IC50", "setting": "[1]; [5]", "result": 2.79, "unit": "µM"}, {"measurement": "inhibition at 7.81 µg/mL", "setting": "[1]", "result": "99 ± 6.4", "unit": "%"}]}, {"smiles": "Oc1cc(O)c2c(c1)O[C@H](c1ccc(O)c(O)c1)[C@@H](O)C2", "note": "[Compound 19, (+)-Catechin]", "values": [{"measurement": "IC50", "setting": "[1]; [5]", "result": 0.389, "unit": "µM"}, {"measurement": "inhibition at 0.977 µg/mL", "setting": "[1]; read-out: Maximum Inhibition (%), recorded at 0.977 μg/mL", "result": "100 ± 5.9", "unit": "%"}]}, {"smiles": "COC(=O)c1cc(O)c(O)c(O)c1", "note": "[Compound 20, Methyl galloate]", "values": [{"measurement": "IC50", "setting": "[1]; [4]", "result": 597, "unit": "µM"}, {"measurement": "inhibition at 250 µg/mL", "setting": "[1]; [2]", "result": "58 ± 1.2", "unit": "%"}]}, {"smiles": "Oc1cc(O)c2c(c1)O[C@@H](c1ccc(O)c(O)c1)[C@H](O)C2", "note": "[Compound 23, (−)-Catechin]", "values": [{"measurement": "inhibition at 250 µg/mL", "setting": "[1]; [2]", "result": "≤ 38", "unit": "%"}]}]}
